The source of these data is patent US5420156A, “Pharmacologically active compound and use” (Burroughs Wellcome Co., priority 1989, dated 1995).

One data set deals with monoamine oxidase (MAO). To be noted: background; cited from earlier work.
Data set [1] concerns MAO-A. In words: In vitro inhibition of MAO-A in mitochondrial extracts of rat or human brain (double-label assay). It is filed as biochemical. Here is the method: (§1) MAO was assayed with [^3 H]serotonin (0.2 mM, 5G/mole) and [^14 C]β-phenethylamine (10 μM, 3 G/mole) as substrate in a double-label assay (White and Glassman, J. Neurochem, 29:987-97 (1977)). Under these conditions, serotonin is selectively metabolised by MAO-A and β-phenethylamine by MAO-B.

Data set [2] has as its system MAO-A. In words: Kinetic mechanism of MAO-A inhibition in vitro (substrate serotonin or tyramine varied). It is filed as biochemical, rat or human. Here is the method:
as §1
For studies of the kinetic mechanism of inhibition, the above method was used except that a single substrate, serotonin or tyramine, was varied over a 10-fold concentration range that included the Km concentration. When tyramine was used as substrate, the extract was pretreated with deprenyl (1 μM) to inhibit all MAO-B activity. MAO-A activity was determined in the absence and presence of the compound under test at each substrate concentration in duplicate or triplicate assays.

For a further data set, the system named is MAO-A (brain). In words: In vivo inhibition of brain MAO-A (ex vivo assay after oral dosing). More on the design: species or system male Sprague-Dawley rats. To be noted: for Percentage inhibition of MAO-A, Brain: 3 hours after dosing; for inhibition of brain MAO-A by the time of tyramine administration: single oral dose, 3 hours later (tyramine pressor study). Here is the method: To determine MAO inhibition in brains and livers of rats pretreated with a reversible inhibitor, it was necessary to use an assay procedure that minimized dilution of the compound. Thus, high concentrations of tissue homogenates were incubated for very short periods of time. For brain assays, initial tissue was 3-fold diluted into each assay. […] Further dilution of liver homogenates was necessary in order to obtain reliable data. Substrate concentrations were not saturating, but were chosen relative to Km values for serotonin and β-phenethylamine in order to give an estimate of MAO-A and MAO-B, respectively. Brains from pretreated male Sprague-Dawley rats ([…]) were homogenized in a buffer consisting of 0.1 M potassium phosphate and 5% sucrose (pH 7.4) at a 1:1 tissue weight/buffer volume ratio, using a motorized Teflon/glass homogenizer. MAO-A and MAO-B were determined by incubating 100 μL of tissue homogenate with 50 μL of a double-label substrate mixture to give final concentrations of [^3 H]serotonin, 0.4 mM (5C/mole) and [^14 C]β-phenethylamine, 20 μM (3C/mole). For blank assays, 100 μL portions of homogeneous were pre-incubated for 15 min. at 37° C. with pargyline (4 mM) before substrate addition. Incubations with substrate present were at 37° C. for 30 sec. Assay mixtures were then acidified and products extracted as in the above in vitro method (White and Glassman, loc. cit.).

In the next data set the test system is MAO-A (liver). Briefly: In vivo inhibition of liver MAO-A (ex vivo assay after oral dosing). Also on record: species or system rats. Here is the method: To determine MAO inhibition in brains and livers of rats pretreated with a reversible inhibitor, it was necessary to use an assay procedure that minimized dilution of the compound. Thus, high concentrations of tissue homogenates were incubated for very short periods of time. For brain assays, initial tissue was 3-fold diluted into each assay. […] Further dilution of liver homogenates was necessary in order to obtain reliable data. Substrate concentrations were not saturating, but were chosen relative to Km values for serotonin and β-phenethylamine in order to give an estimate of MAO-A and MAO-B, respectively. Brains from pretreated male Sprague-Dawley rats (sacrificed 3 hours after oral dosing with the test compound) were homogenized in a buffer consisting of 0.1 M potassium phosphate and 5% sucrose (pH 7.4) at a 1:1 tissue weight/buffer volume ratio, using a motorized Teflon/glass homogenizer. MAO-A and MAO-B were determined by incubating 100 μL of tissue homogenate with 50 μL of a double-label substrate mixture to give final concentrations of [^3 H]serotonin, 0.4 mM (5C/mole) and [^14 C]β-phenethylamine, 20 μM (3C/mole). For blank assays, 100 μL portions of homogeneous were pre-incubated for 15 min. at 37° C. with pargyline (4 mM) before substrate addition. Incubations with substrate present were at 37° C. for 30 sec. Assay mixtures were then acidified and products extracted as in the above in vitro method (White and Glassman, loc. cit.).
Liver tissue was homogenized in the above phosphate-sucrose buffer at a 1:5 tissue weight/buffer volume ratio. Portions (100 μL) of homogenate were incubated with 50 μL of the above double-label substrate mixture. Blank assays included the same volume of homogenate pre-incubated with 4 mM pargyline for 15 min. at 37° C. After addition of substrates, mixtures were incubated at 37° C. for 30 sec, acidified, and products extracted as above.

Another data set has as its system MAO-B (brain). Briefly: In vivo inhibition of brain MAO-B (ex vivo assay after oral dosing). Also on record: species or system male Sprague-Dawley rats. The settings on record: 5, 10, 20 mg/kg p.o. Here is the method: (§2) To determine MAO inhibition in brains and livers of rats pretreated with a reversible inhibitor, it was necessary to use an assay procedure that minimized dilution of the compound. Thus, high concentrations of tissue homogenates were incubated for very short periods of time. For brain assays, initial tissue was 3-fold diluted into each assay. Because of the very high MAO activity. Further dilution of liver homogenates was necessary in order to obtain reliable data. Substrate concentrations were not saturating, but were chosen relative to Km values for serotonin and β-phenethylamine in order to give an estimate of MAO-A and MAO-B, respectively. Brains from pretreated male Sprague-Dawley rats (sacrificed 3 hours after oral dosing with the test compound) were homogenized in a buffer consisting of 0.1 M potassium phosphate and 5% sucrose (pH 7.4) at a 1:1 tissue weight/buffer volume ratio, using a motorized Teflon/glass homogenizer. MAO-A and MAO-B were determined by incubating 100 μL of tissue homogenate with 50 μL of a double-label substrate mixture to give final concentrations of [^3 H]serotonin, 0.4 mM (5C/mole) and [^14 C]β-phenethylamine, 20 μM (3C/mole). For blank assays, 100 μL portions of homogeneous were pre-incubated for 15 min. at 37° C. with pargyline (4 mM) before substrate addition. Incubations with substrate present were at 37° C. for 30 sec. […]

In a further data set the test system is MAO-B (liver). In words: In vivo inhibition of liver MAO-B (ex vivo assay after oral dosing). More on the design: species or system rats. The settings on record: 5, 10, 20 mg/kg p.o. Here is the method: as §2
A short description of data set [3]: Acute oral toxicity, mice. The settings on record: up to 1000 mg/kg., p.o. It counts as in vivo.
A short description of data set [4]: Acute oral toxicity, rats. It is filed as in vivo. To be noted: up to 1000 mg/kg., p.o.
Data set [5] concerns MAO-A. Briefly: Reversibility of binding to MAO-A by dialysis.
Data set [6] deals with elevation of blood pressure by orally ingested tyramine. In words: Response to orally ingested tyramine (elevation of blood pressure) in test mammals. To be noted: oral antidepressant doses prior to orally ingested tyramine. It is filed as in vivo.

Molecules are shown by their SMILES. A value given as a limit tells only on which side of the number the result lay.

Consider `N[C@@H]1C[C@H]1c1ccccc1` (relative stereo) [tranylcypromine], for which the “type of MAO inhibition” value in the data set with monoamine oxidase (MAO) is given as “non-selective, irreversible inhibitors”.
Take `CCc1cccc2c1S(=O)(=O)c1ccccc1O2` [Compound I, 1-Ethylphenoxathiin 10,10-dioxide]: the “inhibition of MAO-A (in words)” value in the data set on MAO-A [1] was “potent selective inhibition of MAO-A”. Also, the IC50 in the data set on MAO-A [1] (read-out: I50 (concentration producing 50% inhibition)) came out at 35 nM. In addition, the “type of inhibition vs. the substrate serotonin or tyramine” value in the data set with MAO-A [2] (substrate serotonin or tyramine) was “competitive”. For the same molecule, the Ki came to 10 nM at MAO-A [2] (vs. substrate serotonin) and 10 nM on MAO-A [2] (vs. substrate tyramine, extract pretreated with deprenyl (1 μM)). Besides, the “Percentage inhibition of MAO-A, Brain” value in the data set on MAO-A (brain) (5 mg/kg p.o.) stood at 18.5 ± 8.1%; in the data set on MAO-A (brain) (10 mg/kg p.o.), 65.2 ± 6.6%; in the data set with MAO-A (brain) (20 mg/kg p.o.) it was 82.4 ± 2.6%. Moreover, the “time of peak inhibition of brain MAO-A” value in the data set on MAO-A (brain) (oral dose of 20 mg/kg) fell in the range of 1 to 6 h. In addition, in the data set with MAO-A (brain) (oral dose of 20 mg/kg, 24 hours), the “inhibition of brain MAO-A at 24 hours after dosing” value is on record as “negligible”. In the data set with MAO-A (brain), the “inhibition of brain MAO-A by the time of tyramine administration” value is on record as “approximately 80%”. The results for the “Percentage inhibition of MAO-A, Liver” value in the data set with MAO-A (liver) (5 mg/kg p.o.), in the data set with MAO-A (liver) (10 mg/kg p.o.) and with MAO-A (liver) (20 mg/kg p.o.) were 32.8 ± 6.4%, 61.8 ± 4.4% and 78.9 ± 1.6%, respectively. In addition, the “inhibition of MAO-B, brain” value with MAO-B (brain) is “no significant inhibition”. In addition, the “inhibition of MAO-B, liver” value with MAO-B (liver) is on record as “no significant inhibition”. Further, the “visible effects after acute doses” value in [3] and in data set [4] was “No visible effects” in each case. The “binding to MAO-A, removal from its complex by dialysis” value in the data set on MAO-A [5] is reported as “reversibly bound to MAO-A”. In addition, in data set [6], the “increase in response (elevation of blood pressure) to orally ingested tyramine” value is reported as “No pharmacologically significant increase in response”.
With `Cc1cc(C(=O)NNCc2ccccc2)no1` [isocarboxazid], the “type of MAO inhibition” value in the data set on monoamine oxidase (MAO) is listed as “non-selective, irreversible inhibitors”.
As to `NNCCc1ccccc1` [pheneizine, reference compound], the “inhibition of brain MAO-A by the time of tyramine administration” value with MAO-A (brain) is “approximately 80%”. In the data set with MAO-A (liver) (single oral dose producing approximately 80% inhibition of brain MAO-A), the “inhibition of liver MAO-A in tyramine pressor study” value is given as no less than 90%. In addition, the “type of MAO inhibition” value with monoamine oxidase (MAO) was “non-selective, irreversible inhibitors”.
